The values below come from ChEMBL document CHEMBL1123125, “Sulfur-interrupted 8-amino side chain analogues of 4-methyl-5-[m-(trifluoromethyl)phenoxy]primaquine as potential antimalarial agents” (1985).

What all share (format): functional
Assay [1] relates to Plasmodium cynomolgi. Briefly: Cures in Plasmodium cynomolgi infected Rhesus monkeys (Macaca mulatta) at 0.1 mg/kg dose; Cured 0 of 2.
Assay [2] concerns Plasmodium cynomolgi. Kind of assay: Cures against Plasmodium cynomolgi infected Rhesus monkeys (Macaca mulatta) at 0.316 mg/kg dose; cured 0 of 2.
For assay [3], the system named is Plasmodium cynomolgi. Kind of assay: Cures in Plasmodium cynomolgi infected Rhesus monkeys (Macaca mulatta) at 1.0 mg/kg dose; Cured 1 of 2.
For assay [4], the system named is Mus musculus. Briefly: Evaluated for the change in mean survival time over controls against Plasmodium berghei in mice (Mus musculus) at dose 80 mg/kg.
Assay [5] deals with Mus musculus. Briefly: Evaluated for number of toxic deaths occurring on day 2-5 after infection with Plasmodium berghei in mice (Mus musculus) at dose 640 mg/kg.
For assay [6], the system named is Mus musculus. Kind of assay: Evaluated for number of toxic deaths occurring on day 2-5 after infection with Plasmodium berghei in mice (Mus musculus) at dose 320 mg/kg.
Assay [7] relates to Mus musculus. Briefly: Evaluated for number of toxic deaths occurring on day 2-5 after infection with Plasmodium berghei in mice (Mus musculus) at dose 160 mg/kg.
Assay [8] concerns Mus musculus. Kind of assay: Evaluated for the change in mean survival time over controls against Plasmodium berghei in mice (Mus musculus) at dose 20 mg/kg.
Assay [9] has as its system Mus musculus. Kind of assay: Evaluated for the change in mean survival time over controls against Plasmodium berghei in mice (Mus musculus) at dose 320 mg/kg.
Assay [10] concerns Plasmodium cynomolgi. Kind of assay: Relapses in Plasmodium cynomolgi infected Rhesus monkeys (Macaca mulatta) at 0.1 mg/kg dose.
Assay [11] has as its system Plasmodium cynomolgi. Briefly: Number of relapses in Plasmodium cynomolgi infected Rhesus monkeys (Macaca mulatta) at 0.316 mg/kg dose.
The test system of assay [12] is Plasmodium cynomolgi. Briefly: Number of relapses in Plasmodium cynomolgi infected Rhesus monkeys (Macaca mulatta) at 1.0 mg/kg dose.
Assay [13] concerns Mus musculus. Kind of assay: Evaluated for the change in mean survival time over controls against Plasmodium berghei in mice (Mus musculus) at dose 40 mg/kg.
Assay [14] has as its system Mus musculus. Kind of assay: Evaluated for the change in mean survival time over controls against Plasmodium berghei in mice (Mus musculus) at dose 640 mg/kg.
In assay [15] the test system is Mus musculus. Briefly: Evaluated for the change in mean survival time over controls against Plasmodium berghei in mice (Mus musculus) at dose 160 mg/kg.
For assay [16], the system named is Mus musculus. Kind of assay: Evaluated for number of toxic deaths against Plasmodium berghei yoelii in mice (Mus musculus) at subcutaneous dose of 40 mg/kg.
The subject of assay [17] is Mus musculus. Kind of assay: Evaluated for number of cures against Plasmodium berghei yoelii in rodents at subcutaneous dose 160 mg/kg; 8/30.
Assay [18] has as its system Mus musculus. Kind of assay: Evaluated for number of cures against Plasmodium berghei yoelii in rodents at subcutaneous dose 2.5 mg/kg; 0/5.
Assay [19] concerns Mus musculus. Briefly: Evaluated for number of cures against Plasmodium berghei yoelii in rodents at subcutaneous dose 40 mg/kg; 7/30.
Assay [20] concerns Mus musculus. Briefly: Evaluated for number of toxic deaths against Plasmodium berghei yoelii in rodents at subcutaneous dose of 160 mg/kg.
Assay [21] has as its system Mus musculus. Briefly: Evaluated for number of cures against Plasmodium berghei in mice (Mus musculus) (surviving 60 days) at dose 320 mg/kg.
In assay [22] the test system is Mus musculus. Kind of assay: Evaluated for number of cures against Plasmodium berghei in mice (Mus musculus) (surviving 60 days) at dose 640 mg/kg.
Assay [23] deals with Mus musculus. Kind of assay: Evaluated for number of cures against Plasmodium berghei yoelii in rodents at peroral dose 10 mg/kg; 2/20. The conditions noted are these: route oral.
For assay [24], the system named is Mus musculus. Briefly: Evaluated for number of cures against Plasmodium berghei yoelii in mice (Mus musculus) at peroral dose 160 mg/kg; 19/20. The conditions noted are these: route oral.
The test system of assay [25] is Mus musculus. Kind of assay: Evaluated for number of cures against Plasmodium berghei yoelii in rodents at peroral dose 2.5 mg/kg; 0/5. The note with it: route oral.
In assay [26] the test system is Mus musculus. Briefly: Evaluated for number of cures against Plasmodium berghei yoelii in rodents at peroral dose 40 mg/kg; 7/20. The conditions noted are these: route oral.
Assay [27] relates to Mus musculus. Kind of assay: Evaluated for number of cures against Plasmodium berghei yoelii in rodents at subcutaneous dose 10 mg/kg; 5/30.
Assay [28] deals with Plasmodium cynomolgi. Briefly: Cures against Plasmodium cynomolgi infected Rhesus monkeys (Macaca mulatta) at 1.0 mg/kg; cured 0 of 2.
Assay [29] relates to Mus musculus. Kind of assay: Evaluated for number of cures against Plasmodium berghei yoelii in mice (Mus musculus) at subcutaneous dose 40 mg/kg; 1/15.
In assay [30] the test system is Mus musculus. Briefly: Evaluated for number of cures against Plasmodium berghei yoelii in rodents at peroral dose 10 mg/kg; 0/5. The conditions noted are these: route oral.
In assay [31] the test system is Mus musculus. Kind of assay: Evaluated for number of cures against Plasmodium berghei yoelii in mice (Mus musculus) at peroral dose 160 mg/kg; Number of tested 5. The note with it: route oral.
In assay [32] the test system is Mus musculus. Briefly: Evaluated for number of cures against Plasmodium berghei yoelii in mice (Mus musculus) at peroral dose 40 mg/kg; 0/5. The note with it: route oral.
The test system of assay [33] is Mus musculus. Kind of assay: Evaluated for number of cures against Plasmodium berghei yoelii in mice (Mus musculus) at subcutaneous dose 10 mg/kg; 0/15.
Assay [34] relates to Mus musculus. Kind of assay: Evaluated for number of cures against Plasmodium berghei yoelii in rodents at subcutaneous dose 160 mg/kg; 5/15.
In assay [35] the test system is Plasmodium cynomolgi. Kind of assay: Cures in Plasmodium cynomolgi infected Rhesus monkeys (Macaca mulatta) at 0.1 mg/kg dose; Cured 0 of 1.
Assay [36] deals with Plasmodium cynomolgi. Kind of assay: Cures in Plasmodium cynomolgi infected Rhesus monkeys (Macaca mulatta) at 0.316 mg/kg dose; Cured 2 of 2.
Assay [37] relates to Plasmodium cynomolgi. Briefly: Cures in Plasmodium cynomolgi infected Rhesus monkeys (Macaca mulatta) at 1.0 mg/kg dose; Cures 2 of 2.
The test system of assay [38] is Mus musculus. Briefly: Evaluated for number of cures against Plasmodium berghei in mice (Mus musculus) (surviving 60 days) at dose 10 mg/kg.
Assay [39] relates to Mus musculus. Kind of assay: Evaluated for number of cures against Plasmodium berghei in mice (Mus musculus) (surviving 60 days) at dose 160 mg/kg.
The subject of assay [40] is Mus musculus. Briefly: Evaluated for number of cures against Plasmodium berghei in mice (Mus musculus) (surviving 60 days) at dose 20 mg/kg.
For assay [41], the system named is Mus musculus. Kind of assay: Evaluated for number of cures against Plasmodium berghei in mice (Mus musculus) (surviving 60 days) at dose 40 mg/kg.
Assay [42] relates to Mus musculus. Briefly: Evaluated for number of cures against Plasmodium berghei in mice (Mus musculus) (surviving 60 days) at dose 5 mg/kg.
The subject of assay [43] is Mus musculus. Kind of assay: Evaluated for number of cures against Plasmodium berghei in mice (Mus musculus) (surviving 60 days) at dose 80 mg/kg.

Each structure is given as a SMILES string.

Take `COc1cc(NC(C)CCCN)c2ncccc2c1` (configuration not stated) [PRIMAQUINE]: the No. of cures in the assay on Plasmodium cynomolgi [1] amounted to 0; in the assay with Plasmodium cynomolgi [2] it was 0; in the assay on Plasmodium cynomolgi [3], 1. Also, the “Change in MST” value in the assay on Mus musculus [4] amounted to 9. Moreover, the No. of deaths is reported as 5 with Mus musculus [5], 5 with Mus musculus [6] and 2 in the assay with Mus musculus [7].
In the case of `COc1cc(NC(C)CSCCN)c2nccc(C)c2c1Oc1cccc(C(F)(F)F)c1` (configuration not stated), the “Change in MST” value with Mus musculus [8] is on record as 3; with Mus musculus [9], 9.6; with Mus musculus [13], 2; in the assay on Mus musculus [14], 12.3; in the assay with Mus musculus [4] it was 6.6; in the assay with Mus musculus [15] it was 6.8. The No. of relapses in the assay with Plasmodium cynomolgi [10] was 8; in the assay with Plasmodium cynomolgi [11] it was 28; with Plasmodium cynomolgi [12] it was 18. Further, the No. of cures with Plasmodium cynomolgi [1] turned out to be 0; with Plasmodium cynomolgi [2], 0; with Plasmodium cynomolgi [3], 1; with Mus musculus [17], 8; in the assay with Mus musculus [18], 0; in the assay with Mus musculus [19] it was 7. Moreover, the No. of cures was 1 in the assay with Mus musculus [21]; 2 in the assay on Mus musculus [22]; 2 in the assay with Mus musculus [23]; 19 in the assay with Mus musculus [24]; 0 in the assay on Mus musculus [25]; 7 in the assay with Mus musculus [26]. The same molecule returned a No. of cures with Mus musculus [27] of 5. In addition, the No. of deaths in the assay with Mus musculus [5] was 1; with Mus musculus [16] it was 2; with Mus musculus [20] it was 3.
`COc1cc(NCC(C)SCCN)c2nccc(C)c2c1Oc1cccc(C(F)(F)F)c1` (configuration not stated): the “Change in MST” value in the assay with Mus musculus [9] was 6.5; in the assay with Mus musculus [13], 0.5; with Mus musculus [14], 9.7; in the assay with Mus musculus [4], 1.5; with Mus musculus [15], 4.5. Also, the No. of relapses with Plasmodium cynomolgi [10] and in the assay on Plasmodium cynomolgi [12] was 7 throughout. Also, the No. of cures in the assay on Plasmodium cynomolgi [28] is given as 0; in the assay with Plasmodium cynomolgi [1] it was 0; in the assay with Mus musculus [29] it was 1; in the assay with Mus musculus [21], 1; with Mus musculus [30] it was 0; in the assay with Mus musculus [31] it was 0. The No. of cures with Mus musculus [32] amounted to 0; in the assay with Mus musculus [33], 0; in the assay with Mus musculus [34], 5. Moreover, the No. of deaths with Mus musculus [16] and in the assay with Mus musculus [20] was 1 throughout.
As for `COc1cc(NC(C)CCCN)c2nccc(C)c2c1Oc1cccc(C(F)(F)F)c1` (configuration not stated), the No. of cures in the assay on Plasmodium cynomolgi [35] worked out at 0; with Plasmodium cynomolgi [36], 2; with Plasmodium cynomolgi [37], 2; in the assay with Mus musculus [38] it was 3; with Mus musculus [39], 5; in the assay with Mus musculus [40], 5. Also, the No. of cures in the assay with Mus musculus [21] is recorded as 5; in the assay on Mus musculus [41], 5; in the assay with Mus musculus [42], 1; with Mus musculus [22], 1; in the assay on Mus musculus [43] it was 5. The No. of deaths in the assay on Mus musculus [5] is given as 4.
